Source: patent US10093683B2, “Factor XIa inhibitors” (Merck Sharp & Dohme Corp., priority 2014, dated 2018)

Assays:
Human plasma kallikrein = Human plasma kallikrein (Homo sapiens (Human), UniProt P03952); assay: Kallikrein Assay; assay type: biochemical; conditions: purified Human plasma kallikrein 0.5 nM, Acetyl-K-P-R-AFC, pH 7.4; Ki from IC50 by Cheng Prusoff
Description: The effectiveness of a compound of the present invention as an inhibitor of Kallikrein can be determined using a relevant purified serine protease, and an appropriate synthetic substrate. The rate of hydrolysis of the chromogenic or fluorogenic substrate by the relevant serine protease was measured both in the absence and presence of compounds of the present invention. Assays were conducted at room temperature or at 37° C. […] A decrease in the rate of fluorescence change in the presence of inhibitor is indicative of enzyme inhibition. Such methods are known to one skilled in the art. The results of this assay are expressed as the inhibitory constant, Ki.
Kallikrein determinations were made in 50 mM HEPES buffer at pH 7.4 containing 150 mM NaCl, 5 mM CaCl2, and 0.1% PEG 8000 (polyethylene glycol; Fisher Scientific). Determinations were made using purified Human plasma kallikrein at a final concentration of 0.5 nM (Enzyme Research Laboratories) and the synthetic substrate, Acetyl-K-P-R-AFC (Sigma #C6608) at a concentration of […].
Times required to achieve equilibration between enzyme and inhibitor were determined in control experiments. The reactions were performed under linear progress curve conditions and fluorescence increase measured at 405 Ex/510 Em nm. […] IC50 was determined by inflection point from a four parameter logistic curve fit. Ki was calculated using the Cheng Prusoff equation, Ki=IC50/(1+([S]/Km)).

human Factor XIa = human Factor XIa (Homo sapiens (Human), UniProt P03951); assay: Factor XIa Assay; assay type: biochemical; conditions: purified human Factor XIa 40 pM, Z-Gly-Pro-Arg-AFC 100 μM, pH 7.4; read-out: FXIa Ki
Summary of the method: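 Ki derived from the dependence of Vo/Vi on inhibitor concentration under a competitive-inhibition model, after pre-equilibration of enzyme and inhibitor. Reaction: 40 pM human FXIa, 100 μM Z-Gly-Pro-Arg-AFC, HEPES 50 mM pH 7.4 with NaCl, CaCl2 and PEG 8000; run at room temperature or 37° C.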

Sequence of human Factor XIa (P03951 388-625): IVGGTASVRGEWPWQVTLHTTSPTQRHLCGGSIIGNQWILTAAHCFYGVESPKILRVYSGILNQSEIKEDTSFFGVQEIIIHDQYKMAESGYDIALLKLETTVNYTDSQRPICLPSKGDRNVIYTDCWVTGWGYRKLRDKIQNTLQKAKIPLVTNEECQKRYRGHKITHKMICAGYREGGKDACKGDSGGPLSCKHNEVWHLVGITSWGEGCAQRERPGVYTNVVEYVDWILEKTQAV
Sequence of human Factor XIa (P03951 19-387 partner): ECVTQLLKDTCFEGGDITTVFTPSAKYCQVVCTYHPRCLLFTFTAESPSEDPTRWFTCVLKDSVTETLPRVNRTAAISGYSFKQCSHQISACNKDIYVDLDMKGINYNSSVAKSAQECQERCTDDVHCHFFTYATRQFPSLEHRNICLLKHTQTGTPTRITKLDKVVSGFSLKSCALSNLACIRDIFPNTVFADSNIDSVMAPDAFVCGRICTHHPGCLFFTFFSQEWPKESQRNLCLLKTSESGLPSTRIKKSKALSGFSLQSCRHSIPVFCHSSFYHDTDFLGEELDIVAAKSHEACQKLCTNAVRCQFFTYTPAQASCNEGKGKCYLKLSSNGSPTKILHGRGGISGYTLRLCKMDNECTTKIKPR
Sequence of Human plasma kallikrein (P03952 391-638): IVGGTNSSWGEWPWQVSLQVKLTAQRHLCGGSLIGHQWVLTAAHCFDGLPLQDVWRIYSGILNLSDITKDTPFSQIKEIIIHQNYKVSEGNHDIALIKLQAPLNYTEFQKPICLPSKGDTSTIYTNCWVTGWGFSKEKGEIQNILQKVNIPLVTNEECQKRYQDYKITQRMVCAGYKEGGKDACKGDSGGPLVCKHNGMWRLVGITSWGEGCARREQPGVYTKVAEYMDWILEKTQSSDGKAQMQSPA
Sequence of Human plasma kallikrein (P03952 20-390 partner): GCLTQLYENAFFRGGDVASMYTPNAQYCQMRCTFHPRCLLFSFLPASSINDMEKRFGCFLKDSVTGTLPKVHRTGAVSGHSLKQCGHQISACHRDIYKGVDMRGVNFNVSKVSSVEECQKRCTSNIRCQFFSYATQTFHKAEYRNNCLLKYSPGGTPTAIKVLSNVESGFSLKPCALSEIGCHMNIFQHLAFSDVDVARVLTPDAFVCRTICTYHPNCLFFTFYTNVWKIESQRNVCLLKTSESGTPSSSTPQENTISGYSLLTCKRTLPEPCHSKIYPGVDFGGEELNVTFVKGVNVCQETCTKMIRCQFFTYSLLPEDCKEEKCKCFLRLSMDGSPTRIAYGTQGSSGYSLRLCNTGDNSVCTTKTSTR

COC(=O)Nc1ccc(C(=O)N[C@@H](Cc2ccc(NC(C)=O)cc2)C(=O)N2CCC[C@@]3(C2)OC(=O)Nc2ccc(Cl)cc23)cc1 [Example 48, methyl (4-(((S)-3-(4-acetamidophenyl)-1-((R)-6-chloro-2-oxo-1,2-dihydrospiro[benzo[d][1,3]oxazine-4,3′-piperidin]-1′-yl)-1-oxopropan-2-yl)carbamoyl)phenyl)carbamate]
Ki (Human plasma kallikrein): 1.27 nM
Ki (human Factor XIa): 2.01 nM

COC(=O)Nc1ccc(C(=O)N[C@@H](Cc2ccc3ccccc3c2)C(=O)N2CCC3(C2)OC(=O)Nc2ccc(Cl)cc23)cc1 (stereo partly drawn) [Example 50, methyl (4-(((2S)-1-(6-chloro-2-oxo-1,2-dihydrospiro[benzo[d][1,3]oxazine-4,3′-pyrrolidin]-1′-yl)-3-(naphthalen-2-yl)-1-oxopropan-2-yl)carbamoyl)phenyl)carbamate]
Ki (Human plasma kallikrein): 227 nM
Ki (human Factor XIa): 33.7 nM

COC(=O)Nc1ccc(C(=O)N[C@@H](CCc2ccccc2)C(=O)N2CCC3(C2)OC(=O)Nc2ccc(Cl)cc23)cc1 (stereo partly drawn) [Example 52, methyl (4-(((2S)-1-(6-chloro-2-oxo-1,2-dihydrospiro[benzo[d][1,3]oxazine-4,3′-pyrrolidin]-1′-yl)-1-oxo-4-phenylbutan-2-yl)carbamoyl)phenyl)carbamate]
Ki (Human plasma kallikrein): 92.8 nM
Ki (human Factor XIa): 17.6 nM

COC(=O)Nc1ccc(C(=O)N[C@@H](Cc2cncn2C)C(=O)N2CCC[C@@]3(C2)OC(=O)Nc2ccc(Cl)cc23)cc1 [Example 53, methyl (4-(((S)-1-((R)-6-chloro-2-oxo-1,2-dihydrospiro[benzo[d][1,3]oxazine-4,3′-piperidin]-1′-yl)-3-(1-methyl-1H-imidazol-5-yl)-1-oxopropan-2-yl)carbamoyl)phenyl)carbamate]
Ki (Human plasma kallikrein): 2.21 nM
Ki (human Factor XIa): 15.5 nM

COC(=O)Nc1ccc(C(=O)N[C@@H](CCSC)C(=O)N2CCC[C@@]3(C2)OC(=O)Nc2ccc(Cl)cc23)cc1 [Example 57, methyl (4-(((S)-1-((R)-6-chloro-2-oxo-1,2-dihydrospiro[benzo[d][1,3]oxazine-4,3′-piperidin]-1′-yl)-4-(methylthio)-1-oxobutan-2-yl)carbamoyl)phenyl)carbamate]
Ki (Human plasma kallikrein): 1.43 nM
Ki (human Factor XIa): 4.9 nM

COC(=O)Nc1ccc(C(=O)N[C@@H](Cc2cscn2)C(=O)N2CCC[C@@]3(C2)OC(=O)Nc2ccc(Cl)cc23)cc1 [Example 58, methyl (4-(((S)-1-((R)-6-chloro-2-oxo-1,2-dihydrospiro[benzo[d][1,3]oxazine-4,3′-piperidin]-1′-yl)-1-oxo-3-(thiazol-4-yl)propan-2-yl)carbamoyl)phenyl)carbamate]
Ki (Human plasma kallikrein): < 1.36 nM
Ki (human Factor XIa): 4.04 nM

COC(=O)Nc1ccc(C(=O)N[C@@H](CC(C)C)C(=O)N2CCC[C@@]3(C2)OC(=O)Nc2ccc(Cl)cc23)cc1 [Example 60, methyl (4-(((S)-1-((R)-6-chloro-2-oxo-1,2-dihydrospiro[benzo[d][1,3]oxazine-4,3′-piperidin]-1′-yl)-4-methyl-1-oxopentan-2-yl)carbamoyl)phenyl)carbamate]
Ki (Human plasma kallikrein): 3.31 nM
Ki (human Factor XIa): 48.9 nM

COC(=O)Nc1ccc(C(=O)N[C@@H](CC2CC2)C(=O)N2CC[C@@]3(C2)OC(=O)Nc2ccc(Cl)c(F)c23)cc1 [Example 61, methyl (4-(((S)-1-((R)-6-chloro-5-fluoro-2-oxo-1,2-dihydrospiro[benzo[d][1,3]oxazine-4,3′-pyrrolidin]-1′-yl)-3-cyclopropyl-1-oxopropan-2-yl)carbamoyl)phenyl)carbamate]
Ki (Human plasma kallikrein): 11.2 nM
Ki (human Factor XIa): 12.7 nM

COC(=O)Nc1ccc(C(=O)N[C@@H](Cc2ccncc2)C(=O)N2CCC[C@@]3(C2)OC(=O)Nc2ccc(Cl)c(F)c23)cc1 [Example 62, methyl (4-(((S)-1-((R)-6-chloro-5-fluoro-2-oxo-1,2-dihydrospiro[benzo[d][1,3]oxazine-4,3′-piperidin]-1′-yl)-1-oxo-3-(pyridin-4-yl)propan-2-yl)carbamoyl)phenyl)carbamate]
Ki (Human plasma kallikrein): 0.54 nM
Ki (human Factor XIa): 0.88 nM

COC(=O)Nc1ccc(C(=O)N[C@@H](CC2CC2)C(=O)N2CCC[C@@]3(C2)OC(=O)Nc2ccc(Cl)c(F)c23)cc1 [Example 63, methyl (4-(((S)-1-((R)-6-chloro-5-fluoro-2-oxo-1,2-dihydrospiro[benzo[d][1,3]oxazine-4,3′-piperidin]-1′-yl)-3-cyclopropyl-1-oxopropan-2-yl)carbamoyl)phenyl)carbamate]
Ki (Human plasma kallikrein): 1.73 nM
Ki (human Factor XIa): 5.64 nM

COC(=O)Nc1ccc(C(=O)N[C@@H](CC2CCOCC2)C(=O)N2CCC[C@@]3(C2)OC(=O)Nc2ccc(Cl)cc23)cc1 [Example 65, methyl (4-(((S)-1-((R)-6-chloro-2-oxo-1,2-dihydrospiro[benzo[d][1,3]oxazine-4,3′-piperidin]-1′-yl)-1-oxo-3-(tetrahydro-2H-pyran-4-yl)propan-2-yl)carbamoyl)phenyl)carbamate]
Ki (Human plasma kallikrein): 5.4 nM
Ki (human Factor XIa): 41.5 nM

COC(=O)Nc1ccc(C(=O)N[C@@H](CC2CC2)C(=O)N2CCC[C@@]3(C2)OC(=O)Nc2ccc(C)cc23)cc1 [Example 66, methyl (4-(((S)-3-cyclopropyl-1-((R)-6-methyl-2-oxo-1,2-dihydrospiro[benzo[d][1,3]oxazine-4,3′-piperidin]-1′-yl)-1-oxopropan-2-yl)carbamoyl)phenyl)carbamate]
Ki (Human plasma kallikrein): 3.8 nM
Ki (human Factor XIa): 30 nM

COC(=O)Nc1ccc(C(=O)N[C@@H](CC2CCCCC2)C(=O)N2CCC[C@@]3(C2)OC(=O)Nc2ccc(Cl)cc23)cc1 [Example 72, methyl (4-(((S)-1-((R)-6-chloro-2-oxo-1,2-dihydrospiro[benzo[d][1,3]oxazine-4,3′-piperidin]-1′-yl)-3-cyclohexyl-1-oxopropan-2-yl)carbamoyl)phenyl)carbamate]
Ki (Human plasma kallikrein): 17.7 nM
Ki (human Factor XIa): 3.58 nM

COC(=O)Nc1ccc(C(=O)N[C@@H](Cc2ccc(F)cn2)C(=O)N2CCC[C@@]3(C2)OC(=O)Nc2ccc(Cl)c(F)c23)cc1 [Example 74, methyl (4-(((S)-1-((R)-6-chloro-5-fluoro-2-oxo-1,2-dihydrospiro[benzo[d][1,3]oxazine-4,3′-piperidin]-1′-yl)-3-(5-fluoropyridin-2-yl)-1-oxopropan-2-yl)carbamoyl)phenyl)carbamate]
Ki (Human plasma kallikrein): 2.53 nM
Ki (human Factor XIa): 2.82 nM

COC(=O)Nc1ccc(C(=O)N[C@@H](Cc2ccc(OC)cn2)C(=O)N2CCC[C@@]3(C2)OC(=O)Nc2ccc(Cl)c(F)c23)cc1 [Example 75, methyl (4-(((S)-1-((R)-6-chloro-5-fluoro-2-oxo-1,2-dihydrospiro[benzo[d][1,3]oxazine-4,3′-piperidin]-1′-yl)-3-(5-methoxypyridin-2-yl)-1-oxopropan-2-yl)carbamoyl)phenyl)carbamate]
Ki (Human plasma kallikrein): 1.56 nM
Ki (human Factor XIa): 1.9 nM

COC(=O)Nc1ccc(C(=O)N[C@@H](Cc2ccncc2F)C(=O)N2CCC[C@@]3(C2)OC(=O)Nc2ccc(Cl)c(F)c23)cc1 [Example 76, methyl (4-(((S)-1-((R)-6-chloro-5-fluoro-2-oxo-1,2-dihydrospiro[benzo[d][1,3]oxazine-4,3′-piperidin]-1′-yl)-3-(3-fluoropyridin-4-yl)-1-oxopropan-2-yl)carbamoyl)phenyl)carbamate]
Ki (Human plasma kallikrein): 1.2 nM
Ki (human Factor XIa): 1.39 nM

COC(=O)Nc1ccc(C(=O)N[C@@H](Cc2ccc(-c3cc[nH]n3)cc2)C(=O)N2CC[C@@]3(C2)OC(=O)Nc2ccc(Cl)cc23)cc1 [Example 77, methyl (4-(((S)-3-(4-(1H-pyrazol-3-yl)phenyl)-1-((R)-6-chloro-2-oxo-1,2-dihydrospiro[benzo[d][1,3]oxazine-4,3′-pyrrolidin]-1′-yl)-1-oxopropan-2-yl)carbamoyl)phenyl)carbamate]
Ki (Human plasma kallikrein): 32.6 nM
Ki (human Factor XIa): 3.48 nM

COC(=O)Nc1ccc(C(=O)N[C@@H](Cc2ccc(-c3cn[nH]c3)cc2)C(=O)N2CC[C@@]3(C2)OC(=O)Nc2ccc(Cl)cc23)cc1 [Example 78, methyl (4-(((S)-3-(4-(1H-pyrazol-4-yl)phenyl)-1-((R)-6-chloro-2-oxo-1,2-dihydrospiro[benzo[d][1,3]oxazine-4,3′-pyrrolidin]-1′-yl)-1-oxopropan-2-yl)carbamoyl)phenyl)carbamate]
Ki (Human plasma kallikrein): 24.5 nM
Ki (human Factor XIa): 2.37 nM

COC(=O)Nc1ccc(C(=O)N[C@@H](Cc2ccc(-c3cc[nH]c3)cc2)C(=O)N2CC[C@@]3(C2)OC(=O)Nc2ccc(Cl)cc23)cc1 [Example 79, methyl (4-(((S)-3-(4-(1H-pyrrol-3-yl)phenyl)-1-((R)-6-chloro-2-oxo-1,2-dihydrospiro[benzo[d][1,3]oxazine-4,3′-pyrrolidin]-1′-yl)-1-oxopropan-2-yl)carbamoyl)phenyl)carbamate]
Ki (Human plasma kallikrein): 14.5 nM
Ki (human Factor XIa): 9.98 nM
